Source: patent publication US10519145B2, “Pyrazole-oxazolidinone compound for anti-hepatitis B virus” (Shanghai Zhimeng Biopharma Co., Ltd., priority 2016, dated 2019)

Tests used:
[1] = test system: HBV genotype AB033554 (B); test: Anti-different genotypic HBV strain activity assay in vitro, transient transfection; assay type: cell-based; conditions: Hepatitis B virus, HepG2
Method: (§1) Compounds were tested for in vitro activity against different genotypic HBV strains using a transient transfection cell model. HepG2 cells (4×10^4 cells/well) that had been transfected with different HBV genotypic strains were seeded into 96-well plates and cultured overnight at 37° C. in 5% CO2. The next day, fresh cultures containing compounds in different concentrations were added into the culture wells. On the fifth day, the old culture medium in the culture wells was aspirated and removed. The fresh medium containing compounds in different concentrations was added. On the eighth day, supernatants in the culture wells were collected and used to extract HBV DNA in the supernatant. qPCR assay was used to detected HBV DNA content in the HepG2 supernatant.

[2] = test system: HBV genotype AB246345 (C); test: as above; assay type: cell-based; conditions: Hepatitis B virus, HepG2
Method: as §1

[3] = test system: HBV genotype AB246346 (C); test: as above; assay type: cell-based; conditions: Hepatitis B virus, HepG2
Method: as §1

[4] = test system: HBV genotype AP007263 (A); test: as above; assay type: cell-based; conditions: Hepatitis B virus, HepG2
Method: as §1

[5] = test system: HBV genotype HE974371 (A2); test: as above; assay type: cell-based; conditions: Hepatitis B virus, HepG2
Method: as §1

[6] = test system: HBV genotype JN406371 (B); test: as above; assay type: cell-based; conditions: Hepatitis B virus, HepG2
Method: as §1

HBV genotype U95551 (D) = test: as above; assay type: cell-based; conditions: Hepatitis B virus, HepG2
Method: as §1

HBV strain U95551 (WT) = test: In vitro anti-nucleoside drug-resistant HBV strain activity experiment, transient transfection; assay type: cell-based; conditions: Hepatitis B virus, transfected HepG2 cells
Method: as §1, with “against nucleoside drug-resistant” for “against different genotypic”, “with nucleoside drug-resistant” for “with different”, “HBV” for “HBV genotypic”, “to detect” for “to detected”

[7] = test system: nucleoside drug-resistant HBV strain L180M + M204V; test: as above; assay type: cell-based; conditions: Hepatitis B virus, HepG2, 192 h
Method: as §1, with “against nucleoside drug-resistant” for “against different genotypic”, “with nucleoside drug-resistant” for “with different”, “HBV” for “HBV genotypic”, “to detect” for “to detected”

[8] = test system: nucleoside drug-resistant HBV strain M204I + S202G + M250V; test: as above; assay type: cell-based; conditions: Hepatitis B virus, HepG2, 192 h
Method: as §1, with “against nucleoside drug-resistant” for “against different genotypic”, “with nucleoside drug-resistant” for “with different”, “HBV” for “HBV genotypic”, “to detect” for “to detected”

[9] = test system: nucleoside drug-resistant HBV strain M204I + S202G; test: as above; assay type: cell-based; conditions: Hepatitis B virus, HepG2, 192 h
Method: as §1, with “against nucleoside drug-resistant” for “against different genotypic”, “with nucleoside drug-resistant” for “with different”, “HBV” for “HBV genotypic”, “to detect” for “to detected”

[10] = test system: nucleoside drug-resistant HBV strain M204I + V173L; test: as above; assay type: cell-based; conditions: Hepatitis B virus, HepG2, 192 h
Method: as §1, with “against nucleoside drug-resistant” for “against different genotypic”, “with nucleoside drug-resistant” for “with different”, “HBV” for “HBV genotypic”, “to detect” for “to detected”

[11] = test system: nucleoside drug-resistant HBV strain M204I; test: as above; assay type: cell-based; conditions: Hepatitis B virus, HepG2
Method: as §1, with “against nucleoside drug-resistant” for “against different genotypic”, “with nucleoside drug-resistant” for “with different”, “HBV” for “HBV genotypic”, “to detect” for “to detected”

HBV (HepG2.2.15 cells) = test: Anti-HBV activity experiment in vitro (HepG2.2.15, HBV DNA in supernatant, qPCR); assay type: cell-based; conditions: Hepatitis B virus, HBV DNA in supernatant by qPCR, eighth day
Method: Compound Dilution: initial concentrations of all compounds used in the anti-HBV activity experiments in vitro were 1 μM, 3-fold diluted into 8 concentrations; initial concentrations of all compounds used in the cytotoxicity assay were 100 μM, 3-fold diluted into 8 concentrations; and the mother liquor of the compound was diluted with DMSO.
Anti-HBV Activity Experiment In Vitro: HepG2.2.15 cells (4×10^4 cells/well) were seeded in 96-well plates and cultured overnight at 37° C. in 5% CO2. The next day, fresh cultures containing compounds in different concentrations were added into the culture wells. On the fifth day, the old culture medium in the culture wells was aspirated and removed. Fresh medium containing compounds in different concentrations was added. On the eighth day, supernatants in the culture wells were collected and used to extract HBV DNA in the supernatant. qPCR assay was used to detect HBV DNA content in the HepG2.2.15 supernatant.
The data analysis and the percentage of inhibition calculation: the percentage of inhibition was calculated by using the following formula: Inhibition %=[(HBV amount in DMSO control−HBV amount in sample)/HBV amount in DMSO control]×100%.

[12] = Pharmacokinetic determination in mice (subcutaneous); assay type: in vivo; conditions: sc, female BALB/c mouse, single administration, plasma
Method: In addition, the pharmacokinetics of the compound of Example 3 (R isomer) in the present application was determined in mice.
Test compounds were subcutaneously administered to female BALB/c mouse once and blood samples were taken at different time points. LC/MS/MS was used to determine the concentration of the test compounds in the […] plasma after administration of the test compounds and calculate relevant parameters.
Animal blood collection time points were: before administration, 5 min, […], 30 min, 1 h, 2 h, 4 h, 8 h and 24 h after administration.
Mass Spectrometer: Triple Quad 5500. Mass Spectrometry Conditions: SRM Detection
Liquid phase conditions: Column: XSELECT CSHTM XP C18 (2.1×50 mm, 2.5 μm); chromatographic mobile phase: mobile phase A: 0.025% FA & 1 mM NH4OAc in water/CAN solution (v:v, 95: 5), mobile phase B: 0.025% FA & 1 mM NH4OAc in ACN/water solution (v:v, 95: 5) (A:B =65%: 35%-10%: 90%); flow rate: 0.6 mL/min; column temperature: 50° C.
According to the drug blood concentration data, the pharmacokinetic parameters of the test compound were calculated using the pharmacokinetic calculation software WinNonlin 5.2 non-compartmental model.

HBV DNA in mouse plasma = test: Determination of pharmacodynamics in vivo (high pressure tail vein injection of HBV DNA); conditions: 25 mpk, intraperitoneal daily
Method: High pressure injection of HBV DNA in tail vein and administration methods:
HBV plasmid DNA solution was high-pressure injected via the tail veins of the mouse: the plasmid DNA was pre-dissolved in physiological saline (10 μg/1.4 ml, 10 μg/1.5 ml) before injection and stored at 4 until its use. The mice were injected with a plasmid DNA solution at a dosage of 8% of the body weight from the tail vein in 5 seconds. If the injection volume is less than or equal to 1.4 ml, 10 μg/1.4 ml of plasmid solution was used; if the injection volume is greater than or equal to 1.5 ml, 10 μg/1.5 ml of plasmid solution was used.
On 1st-7th day, the mice were continuously injected intraperitoneally with the test compound or solvent for 7 days. […] The plasma was divided into two and one was sent to anti-infective groups in the Department of Biology for HBV DNA detection, and the other was ready for use. […]
Quantitative PCR was used to detect the content of HBV DNA in mouse plasma. […]
Quantitative PCR detection of HBV DNA content: In order to rule out possible interference with injected HBV plasmid DNA, two sets of primers and probes were used simultaneously for the assay. […]
HBV DNA content =DNA content detected by HBV primers - DNA content detected by pAAV2 primers

| SMILES | EC50 [1] | EC50 [2] | EC50 [3] | EC50 [4] | EC50 [5] | EC50 [6] | EC50 (HBV genotype U95551 (D)) | EC50 (HBV strain U95551 (WT)) | EC50 [7] | EC50 [8] | EC50 [9] | EC50 [10] | EC50 [11] | further results |
| --- | --- | --- | --- | --- | --- | --- | --- | --- | --- | --- | --- | --- | --- | --- |
| Nc1ccn([C@@H]2CS[C@H](CO)O2)c(=O)n1 [Lamivudine, 3′-thio-2′,3′-dideoxycytidine, reference compound] | 0.156 µM | 0.0973 µM | 0.128 µM | 0.136 µM | 0.136 µM | 0.112 µM | 0.123 µM | 0.0949 µM | > 100 µM | > 100 µM | > 100 µM | > 100 µM | > 100 µM | – |
| O=C1CO[C@H](c2cn(-c3ccc(Br)cc3)nc2-c2ccc(F)cc2)N1CCc1ccc2[nH]c(=O)[nH]c2c1 [example 3 R isomer, (R)-3-(2-(2-oxo-2,3-dihydro-1H-benzo[d]imidazol-5-yl)ethyl)-2-(1-(4-bromophenyl)-3-(4-fluorophenyl)-1H-pyrazol-4-yl)-oxazolidin-4-one] | 0.0136 µM | 0.00626 µM | 0.0146 µM | 0.0339 µM | 0.00467 µM | 0.00869 µM | 0.0144 µM | 0.0191 µM | 0.0189 µM | 0.0136 µM | 0.0116 µM | 0.014 µM | 0.0212 µM | EC50 (HBV (HepG2.2.15 cells)): 0.00768 µM; AUC(0-inf) [12]: 2080 ng·h/mL; Cmax [12]: 643 ng/mL; Tmax [12]: 1.33 h; half-life [12]: 1.19 h; MRT inf ([12]; read-out: MRT0-inf): 2.4 h; decrease of HBV DNA content in mouse plasma (HBV DNA in mouse plasma; 1st day): 0.55 log; decrease of HBV DNA content in mouse plasma (HBV DNA in mouse plasma; 3rd day): 1.84 log |
